Data reported in patent US20260226071A1, “2, 4-DIANILINOPYRIMIDINE-BASED AURORA-A KINASE SELECTIVE DEGRADATION INDUCING COMPOUNDS” (UPPTHERA, INC., priority 2023, published 2026).

Tests used:
NCI-H446 cell line = assay: Cell viability assay for NCI-H446 cell line; assay type: cell-based; conditions: Homo sapiens, NCI-H446, 120 h; H446 cells, 5 days culture, EZ-Cytox; read-out: IC50 value (Level)
How it was run: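 Viability was measured by absorbance at 450 nm after 4 h with EZ-Cytox, following 5-day exposure of NCI-H446 cells (RPMI 1640, 10% FBS, 37 °C, 5% CO2) to 3-fold serial dilutions from 1000 nM down to 0.15 nM, added 24 h post-seeding.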

Aurora kinase A (AURKA) = molecular target: T1, Aurora kinase A (AURKA) (Homo sapiens, UniProt O14965); assay: Luciferase assay for AURKA in HeLa LgBit (AURKA-HiBit KI) cell line; assay type: cell-based; conditions: HeLa LgBit (AURKA-HiBit KI) cells, measured after 12 hours
T1 construct: endogenous in cells; host or cells: HeLa LgBit (AURKA-HiBit KI), CRISPR/Cas9 knock-in at the endogenous AURKA locus
T1 sequence (O14965 1-403): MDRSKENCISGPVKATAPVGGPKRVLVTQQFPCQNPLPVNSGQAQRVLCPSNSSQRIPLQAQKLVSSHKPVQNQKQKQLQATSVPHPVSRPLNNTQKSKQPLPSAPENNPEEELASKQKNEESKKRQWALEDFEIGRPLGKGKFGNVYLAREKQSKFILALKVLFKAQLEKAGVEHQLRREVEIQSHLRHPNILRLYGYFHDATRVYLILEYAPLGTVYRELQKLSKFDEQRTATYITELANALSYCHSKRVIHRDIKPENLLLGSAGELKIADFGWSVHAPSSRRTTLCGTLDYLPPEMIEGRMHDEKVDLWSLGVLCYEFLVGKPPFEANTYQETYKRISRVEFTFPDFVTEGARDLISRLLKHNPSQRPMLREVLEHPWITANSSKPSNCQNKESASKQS
How it was run: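 Test compounds (10 nM or 100 nM) added to AURKA-HiBit knock-in HeLa LgBit cells that had been pre-loaded with Endurazine for 2 h following an 18 h culture at 3×10^4 cells. Endogenous AURKA-HiBit level followed by luminescence (470-480 nm), measured after 12 h.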

Structure (SMILES)	luminescence value (Level) (Aurora kinase A (AURKA); 10 nM compound)	luminescence value (Level) (Aurora kinase A (AURKA); 100 nM compound)	IC50 (NCI-H446 cell line) [nM]
O=C1CCC(c2ccc(N3CCN(CCN4CCC(COc5ccc(Nc6ncc(F)c(Nc7ccc(C(=O)Nc8ccccc8Cl)cc7)n6)cc5)CC4)CC3)cc2)C(=O)N1 (stereo not drawn) [Compound 99, N-(2-chlorophenyl)-4-((2-((4-((1-(2-(4-(4-(2,6-dioxopiperidin-3-yl)phenyl)piperazin-1-yl)ethyl)piperidin-4-yl)methoxy)phenyl)amino)-5-fluoropyrimidin-4-yl)amino) benzamide]	D (D is 0.7 to 0.8)	B (B is 0.2 to 0.4)	> 200
O=C1CCC(c2ccc(N3CCN(CCC4CCN(NC(=O)c5ccc(Nc6ncc(F)c(Oc7ccc(C(=O)Nc8ccccc8Cl)cc7)n6)cc5)CC4)CC3)cc2)C(=O)N1 (stereo not drawn) [Compound 101, N-(2-chlorophenyl)-4-((2-((4-((4-(2-(4-(4-(2,6-dioxopiperidin-3-yl)phenyl)piperazin-1-yl)ethyl)piperidin-1-yl)carbamoyl)phenyl)amino)-5-fluoropyrimidin-4-yl)oxy) benzamide]	B (B is 0.3 to 0.5)	A (A is <0.2)	> 200
O=C1CCC(c2ccc(N3CCN(CCC4CCN(NC(=O)c5ccc(Nc6ncc(F)c(Nc7ccc(C(=O)Nc8ccccc8)cc7)n6)cc5)CC4)CC3)cc2)C(=O)N1 (stereo not drawn) [Compound 103, 4-[[2-[4-[[4-[2-[4-[4-(2,6-dioxo-3-piperidyl)phenyl]piperazin-1-yl]ethyl]-1-piperidyl]carbamoyl]anilino]-5-fluoro-pyrimidin-4-yl]amino]-N-phenyl-benzamide]	B (B is 0.3 to 0.5)	A (A is <0.2)	50 to 100
O=C1CC[C@@H](Nc2ccc(N3CCN(CCC4CCN(NC(=O)c5ccc(Nc6ncc(F)c(Nc7ccc(C(=O)Nc8ccccc8Cl)cc7)n6)cc5)CC4)CC3)cc2F)C(=O)N1 [Compound 111, (R)—N-(2-chlorophenyl)-4-((2-((4-((4-(2-(4-(4-((2,6-dioxopiperidin-3-yl)amino)-3-fluorophenyl)piperazin-1-yl)ethyl)piperidin-1-yl)carbamoyl)phenyl)amino)-5-fluoropyrimidin-4-yl)amino)benzamide]	A (A is <0.3)	A (A is <0.2)	< 50
O=C1CCC(c2cc(F)c(N3CCN(CCC4CCN(NC(=O)c5ccc(Nc6ncc(F)c(Nc7ccc(NC(=O)c8ccccc8F)cc7)n6)cc5F)CC4)CC3)cc2F)C(=O)N1 (stereo not drawn) [Compound 112, N-[4-[2-[4-[4-(2,6-dioxo-3-piperidyl)-2,5-difluoro-phenyl]piperazin-1-yl]ethyl]-1-piperidyl]-2-fluoro-4-[[5-fluoro-4-[4-[(2-fluorobenzoyl)amino]anilino]pyrimidin-2-yl]amino]benzamide]	A (A is <0.3)	A (A is <0.2)	< 50
C[C@@H]1CN(CCC2CCN(NC(=O)c3ccc(Nc4ncc(F)c(Nc5ccc(C(=O)Nc6ccccc6Cl)cc5)n4)cc3)CC2)CCN1c1ccc(C2CCC(=O)NC2=O)cc1 (stereo partly drawn) [Compound 116, N-(2-chlorophenyl)-4-((2-((4-((4-(2-((3R)-4-(4-(2,6-dioxopiperidin-3-yl)phenyl)-3-methylpiperazin-1-yl)ethyl)piperidin-1-yl)carbamoyl)phenyl)amino)-5-fluoropyrimidin-4-yl)amino)benzamide]	A (A is <0.3)	A (A is <0.2)	< 50

More lines, main results first:

luminescence value (Level) (Aurora kinase A (AURKA); 10 nM compound)	luminescence value (Level) (Aurora kinase A (AURKA); 100 nM compound)	Structure (SMILES)	IC50 (NCI-H446 cell line) [nM]
C (C is 0.5 to 0.7)	A (A is <0.2)	CN(Cc1ccc(Nc2ncc(F)c(Nc3ccc(C(=O)Nc4ccccc4Cl)cc3)n2)cc1)C1CCN(CCN2CCN(c3ccc(C4CCC(=O)NC4=O)cc3)CC2)CC1 (stereo not drawn) [Compound 100, N-(2-chlorophenyl)-4-((2-((4-(((1-(2-(4-(4-(2,6-dioxopiperidin-3-yl)phenyl)piperazin-1-yl)ethyl)piperidin-4-yl)(methyl)amino)methyl)phenyl)amino)-5-fluoropyrimidin-4-yl)amino)benzamide]	> 200
A (A is <0.3)	A (A is <0.2)	O=C1CCC(c2ccc(N3CCN(CCC4CCN(NC(=O)c5ccc(Nc6ncc(F)c(Nc7ccc(NC(=O)c8ccccc8F)cc7)n6)cc5)CC4)CC3)cc2)C(=O)N1 (stereo not drawn) [Compound 104, N-[4-[[2-[4-[[4-[2-[4-[4-(2,6-dioxo-3-piperidyl)phenyl]piperazin-1-yl]ethyl]-1-piperidyl]carbamoyl]anilino]-5-fluoro-pyrimidin-4-yl]amino]phenyl]-2-fluoro-benzamide]	< 50
A (A is <0.3)	A (A is <0.2)	Cn1c(=O)n(C2CCC(=O)NC2=O)c2ccc(N3CCN(CCC4CCN(NC(=O)c5ccc(Nc6ncc(F)c(Nc7ccc(C(=O)Nc8ccccc8Cl)cc7)n6)cc5)CC4)CC3)cc21 (stereo not drawn) [Compound 106, N-(2-chlorophenyl)-4-((2-((4-((4-(2-(4-(1-(2,6-dioxopiperidin-3-yl)-3-methyl-2-oxo-2,3-dihydro-1H-benzo[d]imidazol-5-yl)piperazin-1-yl)ethyl)piperidin-1-yl)carbamoyl)phenyl)amino)-5-fluoropyrimidin-4-yl)amino)benzamide]	100 to 150
A (A is <0.3)	A (A is <0.2)	O=C1CC[C@@H](Nc2ccc(N3CCN(CCC4CCN(NC(=O)c5ccc(Nc6ncc(F)c(Nc7ccc(C(=O)Nc8ccccc8Cl)cc7)n6)cc5)CC4)CC3)c(F)c2)C(=O)N1 [Compound 108, (R)—N-(2-chlorophenyl)-4-((2-((4-((4-(2-(4-(4-((2,6-dioxopiperidin-3-yl)amino)-2-fluorophenyl)piperazin-1-yl)ethyl)piperidin-1-yl)carbamoyl)phenyl)amino)-5-fluoropyrimidin-4-yl)amino)benzamide]	< 50
B (B is 0.3 to 0.5)	A (A is <0.2)	O=C1CCC(Nc2cc(F)c(N3CCN(CCC4CCN(NC(=O)c5ccc(Nc6ncc(F)c(Nc7ccc(NC(=O)c8ccccc8F)cc7)n6)cc5F)CC4)CC3)cc2F)C(=O)N1 (stereo not drawn) [Compound 109, N-(4-(2-(4-(4-((2,6-dioxopiperidin-3-yl)amino)-2,5-difluorophenyl)piperazin-1-yl)ethyl)piperidin-1-yl)-2-fluoro-4-((5-fluoro-4-((4-(2-fluorobenzamido)phenyl)amino)pyrimidin-2-yl)amino)benzamide]	50 to 100
C (C is 0.5 to 0.7)	B (B is 0.2 to 0.4)	O=C1CCC(c2ccc(N3CCN(CCC4CCN(C(=O)c5ccc(Nc6ncc(F)c(Nc7ccc(C(=O)Nc8ccccc8Cl)cc7)n6)cc5)CC4)CC3)cc2)C(=O)N1 (stereo not drawn) [Compound 110, N-(2-chlorophenyl)-4-[[2-[4-[4-[2-[4-[4-(2,6-dioxo-3-piperidyl)phenyl]piperazin-1-yl]ethyl]piperidine-1-carbonyl]anilino]-5-fluoro-pyrimidin-4-yl]amino]benzamide]	150 to 200
A (A is <0.3)	A (A is <0.2)	C[C@H]1CN(c2ccc(C3CCC(=O)NC3=O)cc2)CCN1CCC1CCN(NC(=O)c2ccc(Nc3ncc(F)c(Nc4ccc(C(=O)Nc5ccccc5Cl)cc4)n3)cc2)CC1 (stereo partly drawn) [Compound 113, N-(2-chlorophenyl)-4-((2-((4-((4-(2-((2S)-4-(4-(2,6-dioxopiperidin-3-yl)phenyl)-2-methylpiperazin-1-yl)ethyl)piperidin-1-yl)carbamoyl)phenyl)amino)-5-fluoropyrimidin-4-yl)amino)benzamide]	< 50
A (A is <0.3)	A (A is <0.2)	C[C@H]1CN(CCC2CCN(NC(=O)c3ccc(Nc4ncc(F)c(Nc5ccc(C(=O)Nc6ccccc6Cl)cc5)n4)cc3)CC2)CCN1c1ccc(C2CCC(=O)NC2=O)cc1 (stereo partly drawn) [Compound 114, N-(2-chlorophenyl)-4-((2-((4-((4-(2-((3S)-4-(4-(2,6-dioxopiperidin-3-yl)phenyl)-3-methylpiperazin-1-yl)ethyl)piperidin-1-yl)carbamoyl)phenyl)amino)-5-fluoropyrimidin-4-yl)amino)benzamide]	< 50
A (A is <0.3)	A (A is <0.2)	COc1cc(N2CCN(CCC3CCN(NC(=O)c4ccc(Nc5ncc(F)c(Nc6ccc(C(=O)Nc7ccccc7Cl)cc6)n5)cc4)CC3)CC2)c(F)cc1NC1CCC(=O)NC1=O (stereo not drawn) [Compound 117, N-(2-chlorophenyl)-4-((2-((4-((4-(2-(4-(4-((2,6-dioxopiperidin-3-yl)amino)-2-fluoro-5-methoxyphenyl)piperazin-1-yl)ethyl)piperidin-1-yl)carbamoyl)phenyl)amino)-5-fluoropyrimidin-4-yl)amino)benzamide]	< 50
